In patent US9120812B2, “Pyrimidooxazocine derivatives as mTOR-inhibitors” (SANOFI, priority 2012, dated 2015):

Columns and labels:
U87MG tumour cells = assay: Test of in vitro proliferation of U87MG tumour cells; type: cell-based; settings: Homo sapiens, U-87 MG, 72 h, U87MG cells, 72 hours; read-out: U87 Cell Proliferation IC50
Procedure: Model 4: Test of in vitro Proliferation of U87MG Tumour Cells.
The cell growth is determined with the reagent CellTiter 96 AQueous One Solution Cell Proliferation Assay from Promega (Cat. No. G3581).

[1] = biological target: mTOR (human recombinant aa mTOR 1360-2549) (Homo sapiens (Human), UniProt P42345); assay: mTOR enzymatic test by TR-FRET (phosphorylation of GFP-4EBP1); type: biochemical
mTOR (human recombinant aa mTOR 1360-2549), sequence (P42345 1360-2549): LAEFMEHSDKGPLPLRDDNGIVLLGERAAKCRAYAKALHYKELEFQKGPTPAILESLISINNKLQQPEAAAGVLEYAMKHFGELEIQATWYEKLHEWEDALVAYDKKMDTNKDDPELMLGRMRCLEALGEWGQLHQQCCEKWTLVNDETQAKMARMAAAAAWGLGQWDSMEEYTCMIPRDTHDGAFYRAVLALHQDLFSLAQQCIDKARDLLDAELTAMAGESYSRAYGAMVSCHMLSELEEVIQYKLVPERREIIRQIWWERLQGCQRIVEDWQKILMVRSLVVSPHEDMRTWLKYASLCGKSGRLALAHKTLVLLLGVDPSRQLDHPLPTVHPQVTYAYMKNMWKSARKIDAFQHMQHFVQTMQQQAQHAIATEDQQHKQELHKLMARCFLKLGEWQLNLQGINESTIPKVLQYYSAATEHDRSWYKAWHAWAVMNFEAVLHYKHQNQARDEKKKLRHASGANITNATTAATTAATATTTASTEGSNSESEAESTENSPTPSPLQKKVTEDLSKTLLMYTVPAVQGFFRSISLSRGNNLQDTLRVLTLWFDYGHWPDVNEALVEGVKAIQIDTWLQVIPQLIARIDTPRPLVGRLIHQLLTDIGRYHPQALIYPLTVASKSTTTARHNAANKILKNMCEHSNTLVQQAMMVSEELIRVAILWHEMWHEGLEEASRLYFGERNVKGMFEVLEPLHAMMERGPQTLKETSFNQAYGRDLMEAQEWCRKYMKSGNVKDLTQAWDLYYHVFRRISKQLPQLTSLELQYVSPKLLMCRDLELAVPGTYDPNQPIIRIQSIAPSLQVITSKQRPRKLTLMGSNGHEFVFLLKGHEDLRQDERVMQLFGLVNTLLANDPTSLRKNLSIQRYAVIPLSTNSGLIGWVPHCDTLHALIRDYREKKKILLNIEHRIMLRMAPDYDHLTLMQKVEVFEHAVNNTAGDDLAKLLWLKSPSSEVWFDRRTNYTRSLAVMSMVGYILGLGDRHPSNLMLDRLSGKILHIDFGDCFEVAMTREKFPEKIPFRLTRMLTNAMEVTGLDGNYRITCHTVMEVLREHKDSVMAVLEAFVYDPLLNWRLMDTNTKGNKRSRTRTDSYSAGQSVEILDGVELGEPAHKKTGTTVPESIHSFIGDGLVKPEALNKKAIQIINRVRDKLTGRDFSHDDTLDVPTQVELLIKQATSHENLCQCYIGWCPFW
Procedure, shortened: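 TR-FRET detection of GFP-4EBP1 phosphorylation by a terbium-labelled anti-phospho-Thr46 antibody. Kinase reaction ran 30 min at room temperature, was quenched with EDTA (10 mM final) plus Tb-antibody (2 nM final) and left 60 min. Emission at 520 and 490 nm after 340 nm excitation, reported as the 520/490 ratio.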

Akt-pS473 in U87MG cells = settings: Homo sapiens, U-87 MG; for IC50: read-out: U87 Akt-pS473 % Inhibition or IC50, nM (IC50), U87MG cells
PI3Kα (p110α/p85α) = PI3Kα (p110α/p85α) (Homo sapiens (Human), UniProt P42336); assay: PI3Kα enzymatic test by measuring the consumption of ATP; type: biochemical
PI3Kα (p110α/p85α), sequence (P42336 whole entry): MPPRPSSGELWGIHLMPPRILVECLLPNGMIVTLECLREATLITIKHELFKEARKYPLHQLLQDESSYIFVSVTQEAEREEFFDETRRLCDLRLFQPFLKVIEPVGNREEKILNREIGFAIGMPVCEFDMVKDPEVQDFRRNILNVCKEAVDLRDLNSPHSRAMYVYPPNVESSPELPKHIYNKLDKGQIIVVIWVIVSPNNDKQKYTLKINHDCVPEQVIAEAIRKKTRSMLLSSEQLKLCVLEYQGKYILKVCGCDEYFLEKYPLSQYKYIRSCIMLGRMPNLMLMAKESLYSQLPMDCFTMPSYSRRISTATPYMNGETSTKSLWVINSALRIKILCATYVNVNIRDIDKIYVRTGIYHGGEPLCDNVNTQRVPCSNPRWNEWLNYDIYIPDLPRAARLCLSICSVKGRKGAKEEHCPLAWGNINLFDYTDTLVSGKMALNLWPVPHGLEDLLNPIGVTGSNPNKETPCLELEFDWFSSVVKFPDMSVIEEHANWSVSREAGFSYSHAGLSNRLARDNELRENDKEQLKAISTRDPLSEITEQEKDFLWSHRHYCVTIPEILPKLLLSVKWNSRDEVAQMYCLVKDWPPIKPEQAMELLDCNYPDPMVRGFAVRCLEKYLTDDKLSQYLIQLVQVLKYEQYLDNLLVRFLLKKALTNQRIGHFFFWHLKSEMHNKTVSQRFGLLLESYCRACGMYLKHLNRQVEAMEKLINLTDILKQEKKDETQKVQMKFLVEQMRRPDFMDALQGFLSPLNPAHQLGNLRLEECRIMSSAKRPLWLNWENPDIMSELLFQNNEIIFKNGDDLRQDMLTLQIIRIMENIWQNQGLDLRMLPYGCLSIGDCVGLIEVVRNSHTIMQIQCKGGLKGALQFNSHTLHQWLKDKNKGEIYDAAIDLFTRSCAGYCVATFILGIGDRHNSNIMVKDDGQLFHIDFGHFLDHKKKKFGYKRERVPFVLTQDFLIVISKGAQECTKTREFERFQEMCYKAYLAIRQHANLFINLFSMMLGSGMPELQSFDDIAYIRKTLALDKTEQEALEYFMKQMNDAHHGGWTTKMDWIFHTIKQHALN
PI3Kα (p110α/p85α), sequence (P27986 whole entry partner): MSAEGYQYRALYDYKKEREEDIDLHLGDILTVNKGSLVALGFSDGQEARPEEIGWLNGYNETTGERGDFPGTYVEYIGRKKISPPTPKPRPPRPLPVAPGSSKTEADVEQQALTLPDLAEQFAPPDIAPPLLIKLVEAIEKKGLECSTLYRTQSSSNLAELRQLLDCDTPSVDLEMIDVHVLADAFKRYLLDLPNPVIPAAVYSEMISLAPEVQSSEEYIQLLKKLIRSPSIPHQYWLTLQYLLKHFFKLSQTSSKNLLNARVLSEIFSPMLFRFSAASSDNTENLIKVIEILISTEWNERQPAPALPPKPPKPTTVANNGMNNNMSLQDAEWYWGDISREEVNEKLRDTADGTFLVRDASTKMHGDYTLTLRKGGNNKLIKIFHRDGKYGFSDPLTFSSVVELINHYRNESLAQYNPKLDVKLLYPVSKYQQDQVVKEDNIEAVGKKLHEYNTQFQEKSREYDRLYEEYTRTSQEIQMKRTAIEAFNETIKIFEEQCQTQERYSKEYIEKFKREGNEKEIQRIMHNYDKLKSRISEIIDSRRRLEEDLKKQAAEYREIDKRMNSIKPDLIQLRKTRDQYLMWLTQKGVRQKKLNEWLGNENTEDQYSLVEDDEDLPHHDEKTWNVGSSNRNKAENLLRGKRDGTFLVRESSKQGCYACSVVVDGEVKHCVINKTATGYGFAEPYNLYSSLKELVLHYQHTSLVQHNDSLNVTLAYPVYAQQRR
Procedure, shortened: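 p110α/p85α (1.7 μg/ml) with 50 μM PIP2 and 2 μM ATP in pH 7.5 Tris buffer with EGTA, MgCl2, Chaps, DTT; reaction 90 min. Remaining ATP measured by luciferin/luciferase luminescence; IC50 from threefold serial dilutions spanning at least 10 000-fold.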

SMILES | IC50 (U87MG tumour cells) | IC50 [1] | IC50 (Akt-pS473 in U87MG cells) | PI3Ka IC50 (PI3Kα (p110α/p85α)) | inhibition at 1 µM (Akt-pS473 in U87MG cells; read-out: U87 Akt-pS473 % Inhibition)
CCN1CC(C)(C)Oc2nc(N3CC4CCC(C3)O4)nc(-c3ccc(NC(=O)Nc4ccccn4)cc3F)c2C1=O [Example 84, 1-{4-[6-Ethyl-8,8-dimethyl-2-(8-oxa-3-azabicyclo[3.2.1]oct-3-yl)-5-oxo-5,6,7,8-tetrahydro-9-oxa-1,3,6-triazabenzocyclohepten-4-yl]-3-fluorophenyl}-3-pyridin-2-ylurea] | 760 nM | 23 nM | 255 nM | >10000 nM | –
CN1CC(C)(C)Oc2nc(N3CC4CCC(C3)O4)nc(-c3ccc(NC(=O)Nc4ccncc4F)cc3)c2C1=O [Example 85, 1-(3-Fluoropyridin-4-yl)-3-{4-[6,8,8-trimethyl-2-(8-oxa-3-azabicyclo[3.2.1]oct-3-yl)-5-oxo-5,6,7,8-tetrahydro-9-oxa-1,3,6-triazabenzocyclohepten-4-yl]phenyl}urea] | 77 nM | 24 nM | 28 nM | 1950 nM | –
CCN1CC(C)(C)Oc2nc(N3CC4CCC(C3)O4)nc(-c3ccc(NC(=O)Nc4ccnc5[nH]ccc45)c(F)c3)c2C1=O [Example 86, 1-{4-[6-Ethyl-8,8-dimethyl-2-(8-oxa-3-azabicyclo[3.2.1]oct-3-yl)-5-oxo-5,6,7,8-tetrahydro-9-oxa-1,3,6-triazabenzocyclohepten-4-yl]-2-fluorophenyl}-3-(1H-pyrrolo[2,3-b]pyridin-4-yl)urea] | 490 nM | 377 nM | 144 nM | >10000 nM | –
C[C@@H]1COCCN1c1ccc(NC(=O)Nc2ccc(-c3nc(N4CC5CCC(C4)O5)nc4c3C(=O)N(C)CC(C)(C)O4)cc2F)cn1 [Example 87, 1-{2-Fluoro-4-[6,8,8-trimethyl-2-(8-oxa-3-azabicyclo[3.2.1]oct-3-yl)-5-oxo-5,6,7,8-tetrahydro-9-oxa-1,3,6-triazabenzocyclohepten-4-yl]phenyl}-3-[6-((R)-3-methylmorpholin-4-yl)pyridin-3-yl]urea] | 59 nM | 57 nM | 20 nM | >10000 nM | –
CCN1CC(C)(C)Oc2nc(N3CC4CCC(C3)O4)nc(-c3ccc(NC(=O)OC[C@H](C)O)cc3)c2C1=O [Example 88, {4-[6-Ethyl-8,8-dimethyl-2-(8-oxa-3-azabicyclo[3.2.1]oct-3-yl)-5-oxo-5,6,7,8-tetrahydro-9-oxa-1,3,6-triazabenzocyclohepten-4-yl]phenyl}carbamic acid (S)-2-hydroxypropyl ester] | 1900 nM | 198 nM | – | >10000 nM | 65%
CCN1CC(C)(C)Oc2nc(N3C4CCC3COC4)nc(-c3ccc(NC(=O)Nc4cc(OC)ccn4)cc3F)c2C1=O [Example 89, 1-{4-[6-Ethyl-8,8-dimethyl-2-(3-oxa-8-azabicyclo[3.2.1]oct-8-yl)-5-oxo-5,6,7,8-tetrahydro-9-oxa-1,3,6-triazabenzocyclohepten-4-yl]-3-fluorophenyl}-3-(4-methoxypyridin-2-yl)urea] | 221 nM | 84 nM | 260 nM | >10000 nM | –
CCN1CC(C)(C)Oc2nc(N3CCOC[C@@H]3C)nc(-c3ccc(NC(=O)Nc4cc(C)nc(C)n4)cc3)c2C1=O [Example 91, 1-(2,6-Dimethylpyrimidin-4-yl)-3-{4-[6-ethyl-8,8-dimethyl-2-((S)-3-methylmorpholin-4-yl)-5-oxo-5,6,7,8-tetrahydro-9-oxa-1,3,6-triazabenzocyclohepten-4-yl]phenyl}urea] | 410 nM | 53 nM | 47 nM | 4640 nM | –
CCN1CC(C)(C)Oc2nc(N3C4CCC3COC4)nc(-c3ccc(NC(=O)Nc4ccncn4)cc3)c2C1=O [Example 92, 1-{4-[6-Ethyl-8,8-dimethyl-2-(3-oxa-8-azabicyclo[3.2.1]oct-8-yl)-5-oxo-5,6,7,8-tetrahydro-9-oxa-1,3,6-triazabenzocyclohepten-4-yl]phenyl}-3-pyrimidin-4-ylurea] | 99 nM | 40 nM | 12 nM | >10000 nM | –
CCN1CC(C)(C)Oc2nc(N3C4CCC3COC4)nc(-c3ccc(NC(=O)Nc4cc(C)nc(C)n4)cc3)c2C1=O [Example 93, 1-(2,6-Dimethylpyrimidin-4-yl)-3-{4-[6-ethyl-8,8-dimethyl-2-(3-oxa-8-azabicyclo[3.2.1]oct-8-yl)-5-oxo-5,6,7,8-tetrahydro-9-oxa-1,3,6-triazabenzocyclohepten-4-yl]phenyl}urea] | 410 nM | 72 nM | 65 nM | >10000 nM | –
CCNC(=O)Nc1ccc(-c2nc(N3CCOCC3)nc3c2C(=O)N(CC)CC(C)(C)O3)cc1 [Example 96, 1-Ethyl-3-[4-(6-ethyl-8,8-dimethyl-2-morpholin-4-yl-5-oxo-5,6,7,8-tetrahydro-9-oxa-1,3,6-triazabenzocyclohepten-4-yl)phenyl]urea] | 1470 nM | 72 nM | 107 nM | 1444 nM | –
CCNC(=O)Nc1ccc(-c2nc(N3CCOC[C@@H]3C)nc3c2C(=O)N(CC)CC(C)(C)O3)cc1 [Example 98, 1-Ethyl-3-{4-[6-ethyl-8,8-dimethyl-2-((S)-3-methylmorpholin-4-yl)-5-oxo-5,6,7,8-tetrahydro-9-oxa-1,3,6-triazabenzocyclohepten-4-yl]phenyl}urea] | 184 nM | 26 nM | 20 nM | 1138 nM | –
CCNC(=O)Nc1ccc(-c2nc(N3CC4CCC(C3)O4)nc3c2C(=O)N(CC)CC(C)(C)O3)cc1 [Example 99, 1-Ethyl-3-{4-[6-ethyl-8,8-dimethyl-2-(8-oxa-3-azabicyclo[3.2.1]oct-3-yl)-5-oxo-5,6,7,8-tetrahydro-9-oxa-1,3,6-triazabenzocyclohepten-4-yl]phenyl}urea] | 239 nM | 31 nM | 40 nM | >10000 nM | –
CCN1CC(C)(C)Oc2nc(N3CCOCC3)nc(-c3ccc(NC(=O)OC)cc3)c2C1=O [Example 103, [4-(6-Ethyl-8,8-dimethyl-2-morpholin-4-yl-5-oxo-5,6,7,8-tetrahydro-9-oxa-1,3,6-triazabenzocyclohepten-4-yl)phenyl]carbamic acid methyl ester] | 3510 nM | 194 nM | 425 nM | 6590 nM | –
CCN1CC(C)(C)Oc2nc(N3CC4CCC(C3)O4)nc(-c3ccc(NC(=O)OC)cc3)c2C1=O [Example 105, {4-[6-Ethyl-8,8-dimethyl-2-(8-oxa-3-azabicyclo[3.2.1]oct-3-yl)-5-oxo-5,6,7,8-tetrahydro-9-oxa-1,3,6-triazabenzocyclohepten-4-yl]phenyl}carbamic acid methyl ester] | 2690 nM | 180 nM | 360 nM | >10000 nM | –
CCOC(=O)Nc1ccc(-c2nc(N3CC4CCC(C3)O4)nc3c2C(=O)N(CC)CC(C)(C)O3)cc1 [Example 106, {4-[6-Ethyl-8,8-dimethyl-2-(8-oxa-3-azabicyclo[3.2.1]oct-3-yl)-5-oxo-5,6,7,8-tetrahydro-9-oxa-1,3,6-triazabenzocyclohepten-4-yl]phenyl}carbamic acid ethyl ester] | 6560 nM | 442 nM | 767 nM | >10000 nM | –
CCNC(=O)Nc1ccc(-c2nc(N3CC4CCC(C3)O4)nc3c2C(=O)N(CC)CC(C)(C)O3)cc1F [Example 110, 1-Ethyl-3-{4-[6-ethyl-8,8-dimethyl-2-(8-oxa-3-azabicyclo[3.2.1]oct-3-yl)-5-oxo-5,6,7,8-tetrahydro-9-oxa-1,3,6-triazabenzocyclohepten-4-yl]-2-fluorophenyl}urea] | 506 nM | 45 nM | 89 nM | >10000 nM | –
CCN1CC(C)(C)Oc2nc(N3CC4CCC(C3)O4)nc(-c3ccc(NC(=O)Nc4cccnc4)cc3)c2C1=O [Example 112, 1-{4-[6-Ethyl-8,8-dimethyl-2-(8-oxa-3-azabicyclo[3.2.1]oct-3-yl)-5-oxo-5,6,7,8-tetrahydro-9-oxa-1,3,6-triazabenzocyclohepten-4-yl]phenyl}-3-pyridin-3-ylurea] | 154 nM | 20 nM | 24 nM | 2660 nM | –
CCN1CC(C)(C)Oc2nc(N3CC4CCC(C3)O4)nc(-c3ccc(NC(=O)Nc4cc(C)on4)cc3)c2C1=O [Example 116, 1-{4-[6-Ethyl-8,8-dimethyl-2-(8-oxa-3-azabicyclo[3.2.1]oct-3-yl)-5-oxo-5,6,7,8-tetrahydro-9-oxa-1,3,6-triazabenzocyclohepten-4-yl]phenyl}-3-(5-methylisoxazol-3-yl)urea] | 282 nM | 42 nM | 98 nM | 4310 nM | –
CCN1CC(C)(C)Oc2nc(N3CC4CCC(C3)O4)nc(-c3ccc(NC(=O)NCCO)cc3)c2C1=O [Example 117, 1-{4-[6-Ethyl-8,8-dimethyl-2-(8-oxa-3-azabicyclo[3.2.1]oct-3-yl)-5-oxo-5,6,7,8-tetrahydro-9-oxa-1,3,6-triazabenzocyclohepten-4-yl]phenyl}-3-(2-hydroxyethyl)urea] | 1700 nM | 25 nM | 812 nM | 7410 nM | –
